Measured values taken from patent US8946426B2, “Substituted bicyclic heterocyclic compounds as gamma secretase modulators” (Janssen Pharmaceuticals, Inc., priority 2009, dated 2015).

Experiments:
Aβtotal [1] = test: In vivo efficacy: Aβtotal lowering in brain after single oral dose (Table 8); conditions: mouse brain soluble fraction, ELISA, compared to untreated animals
Excerpt: (§1) To determine whether acute administration of an Aβ42 lowering agent would reduce Aβ42 levels in vivo, non-transgenic rodents, e.g. mice or rats were used. Alternatively, two to three month old Tg2576 mice expressing APP695 containing the “Swedish” variant can be used or a transgenic mouse model developed by Dr. Fred Van Leuven (K.U.Leuven, Belgium) and co-workers, with neuron-specific expression of a clinical mutant of the human amyloid precursor protein [V7171] (Moechars et al., 1999 J. Biol. Chem. 274, 6483). Young transgenic mice have high levels of Aβ in the brain but no detectable Aβ deposition. At approximately 6-8 months of age, the transgenic mice start to display spontaneous, progressive accumulation of β-amyloid (Aβ) in the brain, eventually resulting in amyloid plaques within the subiculum, hippocampus and cortex. Animals treated with the Aβ42 lowering agent were examined and compared to those untreated or treated with vehicle and brain levels of soluble Aβ42 and total Aβ would be quantitated by standard techniques, for example, using ELISA. Treatment periods varied from hours to days and were adjusted based on the results of the Aβ42 lowering once a time course of onset of effect could be established.
(§2) A typical protocol for measuring Aβ42 lowering in vivo is shown but it is only one of many variations that could be used to optimize the levels of detectable Aβ. For example, Aβ42 lowering compounds were formulated in 20% of Captisol® (a sulfobutyl ether of β-cyclodextrin) in water or 20% hydroxypropyl β cyclodextrin. The Aβ42 lowering agents were administered as a single oral dose or by any acceptable route of administration to overnight fasted animals. After four hours, the animals were sacrificed and Aβ42 levels were analysed.
(§3) Blood was collected by decapitation and exsanguinations in EDTA-treated collection tubes. Blood was centrifuged at 1900 g for 10 min at 4° C. and the plasma recovered and flash frozen for later analysis. The brain was removed from the cranium and hindbrain. The cerebellum was removed and the left and right hemisphere were separated. The left hemisphere was stored at −18° C. for quantitative analysis of test compound levels. The right hemisphere was rinsed with phosphate-buffered saline (PBS) buffer and immediately frozen on dry ice and stored at −80° C. until homogenization for biochemical assays.
(§4) Mouse brains were resuspended in 10 volumes of 0.4% DEA (diethylamine)/50 mM NaCl pH 10 (for non-transgenic animals) or 0.1% 3-[(3-cholamidopropyl)-dimethyl-ammonio]-1-propanesulfonate (CHAPS) in tris buffered saline (TBS) (for transgenic animals) containing protease inhibitors (Roche-11873580001 or 04693159000 per gram of tissue, e.g. for 0.158 g brain, add 1.58 ml of 0.4% DEA. All samples were sonicated for 30 sec on ice at 20% power output (pulse mode). Homogenates were centrifuged at 221.300×g for 50 min. The resulting high speed supernatants were then transferred to fresh tubes and were optionally further purified before the next step. A portion of the supernatant was neutralized with 10% 0.5 M Tris-HCl and this was used to quantify Aβtotal.
(§5) The obtained supernatants were purified with Water Oasis HLB reverse phase columns (Waters Corp., Milford, Mass.) to remove non-specific immunoreactive material from the brain lysates prior subsequent Aβ detection. Using a vacuum manifold, all solutions were passed through the columns at a rate of approximately 1 ml per minute, so the vacuum pressure was adjusted accordingly throughout the procedure. Columns were preconditioned with 1 ml of 100% MeOH, before equilibration with 1 ml of H2O. Non-neutralized brain lysates were loaded onto the columns. The loaded samples were then washed twice with the first wash performed with 1 ml of 5% MeOH, and the second wash with 1 ml of 30% MeOH. Finally, the Aβ was eluted from the columns and into 100×30 mm glass tubes, with a solution of 90% MeOH with 2% NH4OH. […]

Aβ42 [2] = test: Method 1: Aβ42 sandwich ELISA in supernatant of SKNBE2 cells carrying APP 695-wild type (Tables 7a, 7b); format: cell-based
In short: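 IC50 values were derived with a 4-parameter equation, fitting either percent inhibition or percent of compound-free Aβ42 as the control. The Aβ42 came from supernatants of APP695 wild-type SKNBE2 cells treated for 18 hours. It was measured by ELISA with anti-Aβ42 capture, biotinylated 3D6 and TMB absorbance at 450 nm.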

Aβtotal [3] = test: Method 1: Aβtotal sandwich ELISA in supernatant of SKNBE2 cells carrying APP 695-wild type (Tables 7a, 7b); format: cell-based
In short: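 SKNBE2 cells expressing wild-type APP695 were exposed to compound for 18 Hours in Ultraculture with 1% glutamine. Aβtotal in the supernatant was read by 6E10-capture/biotinylated 4G8 sandwich ELISA with a fluorogenic peroxidase read-out, and WST-1 checked toxicity. IC50 came from a 4-parameter fit of percent inhibition or percent of control versus concentration.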

Aβ42 [4] = test: In vivo efficacy: Aβ42 lowering in brain after single oral dose (Table 8); conditions: mouse brain soluble fraction, ELISA, compared to untreated animals
Excerpt: as §1, §2, §3, §4, §5

[5] = Table 7a, SKNBE2 cells, compounds 18 h, XLfit 4-parameter fit of percent inhibition, top/bottom fixed to 100/0, hill slope 1
[6] = Table 7b, averaged IC50, non-linear regression of percentage of control vs log concentration, 4-parameter equation
[7] = Homo sapiens, SKNBE2, Table 7b, averaged IC50, non-linear regression of percentage of control vs log concentration, 4-parameter equation

**Q.** What does the source list for COc1cc(Nc2nccc3c2nc(-c2ccc(F)cc2F)n3C)ccc1-c1cnc(C)o1 [Compound 31]?
**A.** Aβtotal (% Ctrl)_Mean (Aβtotal [1]): 102 % Ctrl; IC50 (Aβ42 [2]; [5]): 76 nM; IC50 (Aβ42 [2]; [6]): 78 nM; IC50 (Aβtotal [3]; [5]): > 3000 nM; IC50 (Aβtotal [3]; [6]): > 3000 nM; Aβ42 (% Ctrl)_Mean (Aβ42 [4]): 91 % Ctrl

**Q.** With Cc1cn2cc(Br)nc(Nc3ccc(-c4cnc(C)o4)cc3)c2n1 [Compound 179] as the compound, how does the melting point read?
**A.** The melting point was 200.1 °C.

**Q.** And the IC50 (Aβ42 [2]; [7])?
**A.** Its IC50 is greater than 3000 nM.

**Q.** What about the IC50 (Aβtotal [3]; [7]) of the same compound?
**A.** The IC50 was greater than 3000 nM.

**Q.** With COc1ccc(C)c(-c2cn3cccc(Nc4ccc(-c5cnc(C)o5)cc4)c3n2)c1 [Compound 40] as the compound, how does the “Aβtotal (% Ctrl)_Mean” value (Aβtotal [1]) read?
**A.** The value was 102 % Ctrl.

**Q.** And the IC50 (Aβ42 [2]; [5])?
**A.** The IC50 was 11 nM.

**Q.** What about the IC50 (Aβ42 [2]; [6]) of the same compound?
**A.** Its IC50 is 12 nM.

**Q.** And the IC50 (Aβtotal [3]; [5])?
**A.** Its IC50 is greater than 3000 nM.

**Q.** And the IC50 (Aβtotal [3]; [6])?
**A.** Its IC50 is greater than 3000 nM.

**Q.** What about the “Aβ42 (% Ctrl)_Mean” value (Aβ42 [4]) of the same compound?
**A.** Its value is 77 % Ctrl.

**Q.** Which “Aβtotal (% Ctrl)_Mean” value (Aβtotal [1]) does the source give for COc1cc(Nc2ccc(-c3cnc(C)o3)c(OC)c2)c2nc(-c3ccc(F)cc3)n(C)c2c1 [Compound 95] here?
**A.** The value was 88 % Ctrl.

**Q.** And the IC50 (Aβ42 [2]; [6])?
**A.** The IC50 was 23 nM.

**Q.** And the IC50 (Aβtotal [3]; [6])?
**A.** The IC50 was greater than 3000 nM.

**Q.** What about the “Aβ42 (% Ctrl)_Mean” value (Aβ42 [4]) of the same compound?
**A.** Its value is 47 % Ctrl.

**Q.** With COc1cccc(-c2nc3c(Nc4ccc(-c5cnc(C)o5)c(OC)c4)nc(C)cc3n2C)c1 [Compound 97] as the compound, how does the “Aβtotal (% Ctrl)_Mean” value (Aβtotal [1]) read?
**A.** The value was 102 % Ctrl.

**Q.** And the IC50 (Aβ42 [2]; [6])?
**A.** The IC50 was 21 nM.

**Q.** And the IC50 (Aβtotal [3]; [6])?
**A.** Its IC50 is greater than 3000 nM.

**Q.** What about the “Aβ42 (% Ctrl)_Mean” value (Aβ42 [4]) of the same compound?
**A.** The value was 71 % Ctrl.

**Q.** Which “Aβtotal (% Ctrl)_Mean” value (Aβtotal [1]) does the source give for COc1cc(Nc2nccc3c2nc(-c2ccc(F)cc2F)n3C)ccc1-c1ocnc1C [Compound 54] here?
**A.** Its value is 104 % Ctrl.

**Q.** And the IC50 (Aβ42 [2]; [6])?
**A.** The IC50 was 490 nM.

**Q.** What about the IC50 (Aβtotal [3]; [6]) of the same compound?
**A.** Its IC50 is greater than 10000 nM.

**Q.** And the “Aβ42 (% Ctrl)_Mean” value (Aβ42 [4])?
**A.** The value was 101 % Ctrl.

**Q.** With Cc1ncc(-c2ccc(Nc3cccn4c(C(C)C)c(-c5ccc(F)cc5)nc34)cc2)o1 [Compound 175] as the compound, how does the melting point read?
**A.** Its melting point is 157.2 °C.

**Q.** And the IC50 (Aβ42 [2]; [7])?
**A.** The IC50 was 33 nM.

**Q.** And the IC50 (Aβtotal [3]; [7])?
**A.** The IC50 was greater than 3000 nM.

**Q.** For COc1cc(Nc2nc(C)cc3c2nc(-c2ccc(F)cc2)n3C)ccc1-c1cnc(C)o1 [Compound 59], which “Aβtotal (% Ctrl)_Mean” value (Aβtotal [1]) is on record?
**A.** Its value is 95 % Ctrl.

**Q.** What about the IC50 (Aβ42 [2]; [6]) of the same compound?
**A.** Its IC50 is 72 nM.

**Q.** What about the IC50 (Aβtotal [3]; [6]) of the same compound?
**A.** The IC50 was greater than 3000 nM.

**Q.** What about the “Aβ42 (% Ctrl)_Mean” value (Aβ42 [4]) of the same compound?
**A.** Its value is 97 % Ctrl.

**Q.** Which “Aβtotal (% Ctrl)_Mean” value (Aβtotal [1]) does the source give for COc1cc(Nc2cc(C(F)(F)F)cc3c2nc(-c2ccc(F)cc2)n3C)ccc1-c1cnc(C)o1 [Compound 30] here?
**A.** Its value is 92 % Ctrl.

**Q.** What about the IC50 (Aβ42 [2]; [6]) of the same compound?
**A.** The IC50 was 35 nM.

**Q.** What about the IC50 (Aβtotal [3]; [6]) of the same compound?
**A.** Its IC50 is greater than 10000 nM.

**Q.** What about the “Aβ42 (% Ctrl)_Mean” value (Aβ42 [4]) of the same compound?
**A.** Its value is 96 % Ctrl.

**Q.** With COc1cc(Nc2cc(C(F)(F)F)cn3cc(C(C)=O)nc23)ccc1-c1ocnc1C [Compound 165] as the compound, how does the melting point read?
**A.** The melting point was 183.6 °C.

**Q.** And the IC50 (Aβ42 [2]; [7])?
**A.** The IC50 was 288 nM.

**Q.** What about the IC50 (Aβtotal [3]; [7]) of the same compound?
**A.** The IC50 was greater than 30000 nM.

**Q.** For COc1cc(Nc2cc(F)cn3cc(CC(C)C)nc23)ccc1-c1ocnc1C.Cl [Compound 157], which “Aβtotal (% Ctrl)_Mean” value (Aβtotal [1]) is on record?
**A.** The value was 100 % Ctrl.

**Q.** What about the IC50 (Aβ42 [2]; [6]) of the same compound?
**A.** Its IC50 is 81 nM.

**Q.** And the IC50 (Aβtotal [3]; [6])?
**A.** Its IC50 is greater than 10000 nM.

**Q.** And the “Aβ42 (% Ctrl)_Mean” value (Aβ42 [4])?
**A.** The value was 77 % Ctrl.
